Legend:
[1] = system: A549; experiment: Cytotoxicity against human A549 cells by SRB assay; assay type: functional, cell-based
[2] = system: SK-OV-3; experiment: Cytotoxicity against human SK-OV-3 cells by SRB assay; assay type: functional, cell-based
[3] = system: SK-MEL-2; experiment: Cytotoxicity against human SK-MEL-2 cells by SRB assay; assay type: functional, cell-based
[4] = system: HCT-116; experiment: Cytotoxicity against human HCT116 cells by SRB assay; assay type: functional, cell-based
[5] = biological target: T1, DNA topoisomerase 1 (Homo sapiens) (UniProt P11387); experiment: Inhibition of human topoisomerase 1-mediated DNA relaxation activity at 5 uM after 10 mins relative to control
T1 sequence (whole entry): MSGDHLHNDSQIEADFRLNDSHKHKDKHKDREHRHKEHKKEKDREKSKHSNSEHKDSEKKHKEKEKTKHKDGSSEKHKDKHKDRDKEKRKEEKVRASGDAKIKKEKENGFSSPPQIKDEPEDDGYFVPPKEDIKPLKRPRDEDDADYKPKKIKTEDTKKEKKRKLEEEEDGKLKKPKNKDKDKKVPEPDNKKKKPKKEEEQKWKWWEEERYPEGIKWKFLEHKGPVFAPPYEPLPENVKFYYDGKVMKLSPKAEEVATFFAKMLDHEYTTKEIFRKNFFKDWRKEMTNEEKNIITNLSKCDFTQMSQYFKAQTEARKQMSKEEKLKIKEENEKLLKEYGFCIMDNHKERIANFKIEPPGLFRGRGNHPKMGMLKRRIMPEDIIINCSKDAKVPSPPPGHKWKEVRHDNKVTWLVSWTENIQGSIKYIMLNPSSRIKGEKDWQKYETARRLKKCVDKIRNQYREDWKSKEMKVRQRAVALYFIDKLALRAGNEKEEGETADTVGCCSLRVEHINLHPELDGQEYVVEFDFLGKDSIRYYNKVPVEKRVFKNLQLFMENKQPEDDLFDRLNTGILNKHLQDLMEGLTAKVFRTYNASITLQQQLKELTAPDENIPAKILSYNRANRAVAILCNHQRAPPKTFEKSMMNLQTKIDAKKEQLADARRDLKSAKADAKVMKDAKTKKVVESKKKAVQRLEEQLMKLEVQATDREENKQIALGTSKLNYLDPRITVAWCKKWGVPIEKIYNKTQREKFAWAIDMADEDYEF

[6] = system: HL-60; experiment: Cytotoxicity against human HL60 cells by SRB assay; assay type: functional, cell-based
[7] = system: SNU-638; experiment: Cytotoxicity against human SNU638 cells by SRB assay; assay type: functional, cell-based
[8] = system: HT-1080; experiment: Cytotoxicity against human HT1080 cells by SRB assay; assay type: functional, cell-based
[9] = system: XF498; experiment: Cytotoxicity against human XF498 cells by SRB assay; assay type: functional, cell-based
[10] = species: Homo sapiens; experiment: Inhibition of human topoisomerase 2-mediated KDNA decatenation activity at 5 uM after 10 mins relative to control
[11] = Inhibition of human topoisomerase 2 […]
[12] = biological target: T2, DNA topoisomerase 1 (Homo sapiens, UniProt P11387); experiment: Inhibition of human topoisomerase 1 […]
T2 sequence (P11387 whole entry): T1 sequence (whole entry)

[13] = species: Homo sapiens; experiment: Inhibition of human topoisomerase 2-mediated KDNA decatenation activity at 200 uM after 10 mins relative to control

| inhibition [5] [%] | inhibition [10] [%] | IC50 [11] [nM] | IC50 [12] [nM] | inhibition [13] [%] | SMILES | IC50 [1] [nM] | IC50 [2] [nM] | IC50 [3] [nM] | IC50 [4] [nM] | IC50 [6] [nM] | IC50 [7] [nM] | IC50 [8] [nM] | IC50 [9] [nM] |
| --- | --- | --- | --- | --- | --- | --- | --- | --- | --- | --- | --- | --- | --- |
| 14 | 59 | – | – | – | CC(C)N(CCOc1cc2oc3c(c2cc1Cl)C(=O)c1ccccc1C3=O)C(C)C | > 20000 | > 20000 | > 20000 | > 20000 | > 20000 | > 20000 | > 20000 | > 20000 |
| 6 | 88 | – | – | – | CC(CN(C)C)Oc1cc2oc3c(c2cc1Cl)C(=O)c1ccccc1C3=O (centres undefined) | 620 | 550 | 340 | 420 | 670 | 100 | 490 | 550 |
| 0 | 68 | – | – | – | CC(COc1cc2oc3c(c2cc1Cl)C(=O)c1ccccc1C3=O)N(C)C (centres undefined) | 450 | 650 | 500 | 340 | 630 | 1140 | 650 | 550 |
| 0 | 35 | – | – | – | CC(C)N(CCOc1cc2oc3c(c2cc1Cl)C(=O)c1cccnc1C3=O)C(C)C | 180 | 750 | 730 | 410 | 700 | 530 | 220 | 910 |
| 19 | 50 | – | – | – | CCN(CC)CCOc1cc2oc3c(c2cc1Cl)C(=O)c1ccccc1C3=O | 1590 | > 20000 | 5730 | 1520 | 2270 | 2770 | 2730 | > 20000 |
| 0 | 100 | 680 | 64300 | – | CCN(CC)CCOc1ccc2c3c(oc2c1)C(=O)c1ncccc1C3=O | 50 | 270 | 160 | 60 | 250 | 140 | 70 | 140 |
| 0 | 67 | – | – | – | CC(COc1ccc2c3c(oc2c1)C(=O)c1ncccc1C3=O)N(C)C (centres undefined) | 20 | 80 | 90 | 70 | 180 | 110 | 60 | 100 |
| 12 | 91 | – | – | – | CCN(CC)CCOc1ccc2c3c(oc2c1)C(=O)c1ccccc1C3=O | 1090 | > 20000 | > 20000 | 1680 | 650 | 3110 | 2190 | > 20000 |
| 0 | 24 | – | – | – | CC(CN(C)C)Oc1ccc2c3c(oc2c1)C(=O)c1ncccc1C3=O (centres undefined) | 60 | 150 | 150 | 80 | 90 | 140 | 170 | 120 |
| 12 | 84 | – | 59500 | – | CC(CN(C)C)Oc1ccc2c3c(oc2c1)C(=O)c1ccccc1C3=O (centres undefined) | 370 | 2260 | 1520 | 270 | 250 | 880 | 270 | 1750 |
| 0 | 71 | – | – | – | CC(C)N(CCOc1ccc2c3c(oc2c1)C(=O)c1ncccc1C3=O)C(C)C | 370 | 1020 | 940 | 180 | 80 | 450 | 180 | 940 |
| 0 | 59 | – | – | – | CC(COc1cc2oc3c(c2cc1Cl)C(=O)c1cccnc1C3=O)N(C)C (centres undefined) | 90 | 150 | 140 | 140 | 220 | 180 | 110 | 140 |
| 14 | 100 | 1190 | 42000 | – | CC(COc1ccc2c3c(oc2c1)C(=O)c1ccccc1C3=O)N(C)C (centres undefined) | 210 | 19000 | 2150 | 2200 | 390 | 840 | 340 | 4690 |
| 10 | 36 | – | – | – | CC(C)N(CCOc1ccc2c3c(oc2c1)C(=O)c1ccccc1C3=O)C(C)C | 2010 | 3550 | 1530 | 1390 | 1110 | 2570 | 1020 | 3170 |
| – | 78 | 2670 | – | – | COc1cccc2c1C(=O)c1c(O)c3c(c(O)c1C2=O)C[C@@](O)(C(=O)CO)C[C@@H]3O[C@H]1C[C@H](N)[C@H](O)[C@H](C)O1 [DOXORUBICIN] | 150 | 290 | 70 | 620 | 40 | 60 | 60 | 40 |
| 0 | 47 | – | – | – | CCN(CC)CCOc1cc2oc3c(c2cc1Cl)C(=O)c1cccnc1C3=O | 90 | 250 | 240 | 130 | 310 | 140 | 150 | 400 |
| – | – | 78400 | – | 89 | COc1cc([C@@H]2c3cc4c(cc3[C@@H](O[C@@H]3O[C@@H]5CO[C@@H](C)O[C@H]5[C@H](O)[C@H]3O)[C@H]3COC(=O)[C@H]23)OCO4)cc(OC)c1O [ETOPOSIDE] | – | – | – | 1870 | 370 | – | – | – |
| 0 | 11 | – | – | – | CC(CN(C)C)Oc1cc2oc3c(c2cc1Cl)C(=O)c1cccnc1C3=O (centres undefined) | 100 | 150 | 150 | 130 | 60 | 100 | 100 | 170 |

Reference: ChEMBL document CHEMBL1146354, “Synthesis, cytotoxicity, and DNA topoisomerase II inhibitory activity of benzofuroquinolinediones” (Bioorg Med Chem, 2007)
